Test [1] is described as follows: Oral aversion test. The test is classed as in vivo, ICR mice. As for the experimental part: Oral aversion test was confirmed according to the methods of Caterina M J, et al. (Science 288:306-313, 2000) and Kwan K Y, et al. (Neuron 50: 277-289, 2006). Particularly, adult ICR mice randomly selected and raised were allowed to drink water containing 0.125% saccharin (Sigma Aldrich, USA) only for three hours a day. Water and feed were provided for 4 days. Water and feed consumptions were measured everyday. On day 4, water containing 20 mM probenecid was provided for 3 hours. Statistical data were analyzed by two-tailed, unpaired Student's-t-test and the results were presented by mean ±S.E.M.

In test [2] the target is T1, rTRPV2 (Rattus norvegicus, UniProt Q9WUD2, A713V/L151P/T158I).
T1 construct: expressed in transfected cells; host or cells: HEK293T (ATCC CRL-11268)
T1 sequence (Q9WUD2 1-761 L151P/T158I/A713V): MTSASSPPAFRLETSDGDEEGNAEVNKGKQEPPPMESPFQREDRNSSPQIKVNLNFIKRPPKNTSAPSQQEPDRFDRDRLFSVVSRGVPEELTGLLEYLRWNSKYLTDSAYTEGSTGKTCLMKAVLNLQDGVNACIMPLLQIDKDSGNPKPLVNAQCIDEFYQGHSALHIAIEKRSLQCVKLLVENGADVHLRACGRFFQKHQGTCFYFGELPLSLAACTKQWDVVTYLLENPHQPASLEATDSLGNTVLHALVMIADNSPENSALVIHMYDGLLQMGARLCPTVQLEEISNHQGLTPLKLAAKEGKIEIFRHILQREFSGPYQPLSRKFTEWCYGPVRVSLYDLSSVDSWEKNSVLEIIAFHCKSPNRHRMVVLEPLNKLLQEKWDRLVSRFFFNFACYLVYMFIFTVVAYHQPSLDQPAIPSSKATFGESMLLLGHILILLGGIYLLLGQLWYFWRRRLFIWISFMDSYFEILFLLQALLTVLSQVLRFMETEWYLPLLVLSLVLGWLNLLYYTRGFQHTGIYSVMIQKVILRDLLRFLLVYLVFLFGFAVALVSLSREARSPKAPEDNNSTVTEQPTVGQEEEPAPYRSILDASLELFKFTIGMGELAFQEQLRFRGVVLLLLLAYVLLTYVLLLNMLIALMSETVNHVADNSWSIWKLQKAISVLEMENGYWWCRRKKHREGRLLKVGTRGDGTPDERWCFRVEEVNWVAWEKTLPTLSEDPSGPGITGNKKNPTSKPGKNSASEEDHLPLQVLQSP
Kind of test: Whole-cell voltage-clamp recording in TRPV2 transfected HEK293T cell line. The following applies: 100 μM probenecid; +60 mV and −60 mV; n=5. The test is classed as cell-based. As for the experimental part:
HEK293T cell line (ATCC CRL-1 1268) was transiently transfected with plasmid DNA containing polynucleotide encoding […] (SEQ. ID. NO: 1), rTRPV2 (SEQ. ID. NO: 2), mTRPV3 (SEQ. ID. NO: 3), rTRPV4 (SEQ. ID. NO: 4), mTRPM8 (SEQ. ID. NO: 5) or mTRPA1 (SEQ. ID. NO: 6).
Particularly, the HEK293T cell line was transiently transfected with individual TRP channel plasmid (pcDNA3.1 containing polynucleotide encoding rTRPV1, rTRPV2, mTRPV3, rTRPV4, mTRPM8 or mTRPA1), and 600 ng/well of pCDNA3 (Invitrogen Corp., USA; containing green fluorescent protein (GFP) cDNA) using Fugene6 (Roche Diagnostics, USA) according to manufacturer's instruction. The transformed cells were cultured in DMEM/F12 containing 10% FBS and 1% penicillin/streptomycin in a CO2 incubator for 24 hours. The cells were replated onto poly-L-lysine-coated glass coverslips, followed by further culture for 10-24 hours.
The TRPV2 transfected cell line prepared in Example 1 was treated with 100 μM probenecid (Sigma-Aldrich, USA) and 300 μM 2-APB (2-aminoethoxydiphenyl borate; Cayman Chemical, USA), respectively. Stock solutions were made using water, DMSO or ethanol, and were diluted with test solutions before use.
Whole-cell voltage-clamp recording, one of the patch-clamp techniques, was performed with the transfected cell line of Example <1-1> according to the method of Bandel M, et al. (Neuron 41:849-857, 2004).
Particularly, the extracellular solution (140 mM NaCl, 5 mM KCl, 2 mM CaCl2, 1 mM MgCl2, 10 mM HEPES; titrated to pH 7.4 with NaOH) and the pipette solution (140 mM CsCl, 5 mM EGTA, 10 mM HEPES, 2.0 mM MgATP, 0.2 mM NaGTP; titrated to pH 7.2 with CsOH) were used. The potential was held at −60 mV for 250 ms, voltage-ramp pulsed from −80 mV to +80 mV for […] and returned to −60 mV for 250 ms, which was repeated without intersweep. This experiment was repeated 5 times.
The TRPV2 transfected cell line prepared by the method of Example 1 was treated with 100 μM probenecid, 100 μM probenecid+20 μM ruthenium red (Sigma-Aldrich, USA) and 300 μM 2-APB, respectively. […]

Turning to `CCCN(CCC)S(=O)(=O)c1ccc(C(=O)O)cc1` [probenecid], the oral aversion entry in test [1] (water containing 20 mM probenecid) is given as “did not induce oral aversion”. Further, the “water and feed consumption, treated versus not treated group” value in test [1] (water containing 20 mM probenecid for 3 hours on day 4, n=5) is “no significant difference”. In addition, the “whole cell current (TRPV2 activation)” value in test [2] is “significant increase of current”.

Values taken from US7915012B2, “Methods for screening for inhibitors of TRPV2 activation” (Korea University Industry and Academic Collaboration …, priority 2008, dated 2011).
